One experiment deals with transformed cell lines. The following applies: cited from earlier work.
A further experiment concerns antizyme. The settings on record: cited from earlier work.
In experiment [1] the target is Ova257-264-specific B3Z hybridoma. The experiment can be described thus: β-galactosidase-based T hybridoma stimulation assay. The arrangement: species or system mouse. The settings on record: L-Kb cells infected with rVV at 10 pfu/cell or pulsed with peptide 10^-9 M; FIGS. 4, 5. From the text: FIG. 4. The TK frameshifting element directs expression and in vitro presentation of Ova257-264 that has been shifted to RF+1. The TK frameshifting element was inserted into the SphI site of NP/Ova257-264, shifiting all downstream NP/Ova257-264-encoding sequence, including Ova257-264, into RF+1 (TK-FS). Negative and positive control TK sequences (TK-NC, and TK-IF respectively) were also inserted. L-K^b cells were infected overnight with rVVs expressing these three constructs, along with a negative control VV (VV-NC). […]
Assays for epitope expression based upon use of the B3Z T hybridoma that produces β-galactosidase upon activation, have been described previously (Wherry, et al, J. Immunol 163, no. 7:3735, 1999). […] After overnight incubation, β-galactosidase production was assessed using the fluorogenic substrate methyl umbelliferone-βgalactoside as described by Sanderson and Shastri (Sanderson and N. Shastri, Internal Immunology 158:3227, 1997).
The frameshifting element derived from the mutant (TK-FS), as well as control sequences, in which the G run required for frameshifting was deleted (TK-NC), were tested following insertion into the SphI site of the NP/Ova257-264 construct (see FIG. 2) and recognition of Ova257-264 was monitored. […]

As for `N=C(N)NCCCCN` [agmatine], the “growth of transformed cell lines” value in the experiment with transformed cell lines is reported as “growth inhibition of transformed cell lines”. The polyamine levels result with antizyme is “lowered polyamine levels”. The antizyme expression entry in the experiment with antizyme (via effect on +1 frameshifting) is “capable of stimulating antizyme expression”.

On to “Ova257-264: synthetic version of the H-2Kb-restricted epitope within ovalbumin (ESIINFEK; UniProt P01012 257-264, looked up, fragment)”, for which the “Kb/Ova257-264-specific recognition (β-galactosidase production by B3Z versus BWZ)” value in experiment [1] was “strong specific response”.

The record behind these values is patent US20020068274A1, “Novel method for assessing recoding in vitro and in vivo” (priority 2000, published 2002).
